From ChEMBL document CHEMBL1149841, “Synaptosides A and A1, triterpene glycosides from the sea cucumber Synapta maculata containing 3-O-methylglucuronic acid and their cytotoxic activity against tumor cells” (J Nat Prod, 2008)
The source made the active and inactive calls. The calls are words filed in the database; no cut-off is given here.

How the values were obtained:
[1] = test system: HeLa; assay: Cytotoxicity against human HeLa cells after 12 hrs at 14.1 ug/ml by MTS reduction assay; assay type: functional, cell-based
[2] = test system: HeLa; assay: Cytotoxicity against human HeLa cells after 12 hrs by MTS reduction assay; assay type: functional, cell-based

Row | Compound | Activity [1] | IC50 [2] [µg/mL]
1 | CO[C@@H]1[C@@H](O)[C@H](O[C@@H]2[C@@H](O)[C@H](O[C@H]3[C@H](O)[C@@H](O)[C@H](O[C@H]4[C@H](O[C@H]5CC[C@]6(C)C7=C(C(=O)C[C@H]6C5(C)C)[C@]5(C)CC[C@H]6[C@]5(CC7)C(=O)O[C@@]6(C)CC(=O)CC(C)C)OC[C@@H](O[C@@H]5O[C@H](COS(=O)(=O)O)[C@@H](O)[C@H](O)[C@H]5O)[C@@H]4O)O[C@@H]3C)O[C@H](CO)[C@H]2O)O[C@H](C(=O)O)[C@H]1O | inactive | 
2 | CO[C@@H]1[C@@H](O)[C@H](O[C@@H]2[C@@H](O)[C@H](O[C@H]3[C@H](O)[C@@H](O)[C@H](O[C@H]4[C@H](O[C@H]5CC[C@]6(C)[C@@H]7CC[C@]89C(=O)O[C@@](C)(CC(=O)CC(C)C)[C@H]8CC[C@@]9(C)C7=CC[C@H]6C5(C)C)OC[C@@H](O[C@@H]5O[C@H](COS(=O)(=O)[O-])[C@@H](O)[C@H](O)[C@H]5O)[C@@H]4O)O[C@@H]3C)O[C@H](CO)[C@H]2O)O[C@H](C(=O)[O-])[C@H]1O.[Na+].[Na+] [SYNAPTOSIDE A] |  | 8.6
